Measurements as given in patent publication US20220274980A1, “PHARMACOLOGICAL INHIBITORS OF THE ENL YEATS DOMAIN” (priority 2019, published 2022).
Like-named read-outs stand apart in the source and are kept apart here.

What was measured:
[1] = target: T1, ENL YEATS domain (association with H3K27cr) (Homo sapiens, UniProt Q03111); experiment: biochemical
T1 sequence (Q03111 1-148): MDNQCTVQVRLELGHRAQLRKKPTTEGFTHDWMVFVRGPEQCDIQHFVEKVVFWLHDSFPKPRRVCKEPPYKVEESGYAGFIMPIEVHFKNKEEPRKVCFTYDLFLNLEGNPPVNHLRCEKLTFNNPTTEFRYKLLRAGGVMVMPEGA
Procedure: (§1) Protein Production. Double stranded DNA fragments encoding the protein sequence of ENL YEATS(1-148) were synthesized (IDT DNA) for assembly-based cloning into a modified expression vector backbone derived from pET21a (Novagen). The protein was fused to a StrepII-SUMO and 6×His tag on the amino and carboxy terminus, respectively. Transformed BL21(DE3) cells (New England Biolabs) were grown at 37° C. in 2×YT growth medium to an OD600 of 0.6. Protein expression was induced at 25° C. with the addition of isopropyl-β-D-thiogalactopyranoside (IPTG) to a final concentration of 0.4 mM. The culture was harvested by centrifugation following a 20-hour incubation and subsequently purified by immobilized metal affinity chromatography. Cells were resuspended 50 mM Tris-HCl pH 8.0, 300 mM NaCl, 10% glycerol, 10 mM imidazole, 1 mM DTT containing Complete EDTA-free protease inhibitor (Roche) and lysed by two passes through a MicroFluidizer at 10,000 psi. The lysate was clarified by centrifugation at 16,000 rpm for 30 minutes at 4° C. The supernatant was passed over NiNTA agarose (QIAGEN) and the protein was eluted in 50 mM Tris-HCl pH 8.0, 300 mM NaCl, 10% glycerol, 250 mM imidazole, 1 mM DTT. Fractions containing the ENL YEATS(1-148) fusion protein were buffer exchanged into 100 mM Tris-HCl pH 8.0, 150 mM NaCl, 1 mM EDTA, 1 mM DTT using PD10 desalting columns (GE Life Sciences). Ulp1 protease was added to cleave the StrepII-SUMO fusion and the reaction mixture was incubated overnight at 4° C. The cleavage reaction mixture was loaded onto a StrepTrap column (GE Life Sciences) and ENL YEATS(1-148) was recovered in the flow through. BRD4 BD1 was purchased from Cayman (Cat. No. 11720).
(§2) Homogenous time-resolved FRET (HTRF) histone-binding assays. Both HTRF assays were performed by combining recombinant protein and synthetic histone peptide in assay buffer (25 mM HEPES pH 7, 20 mM NaCl, 0.2% Pluronic F-127, and 0.05% BSA) with 1 nM LanthaScreen Eu-anti-His Tag antibody (ThermoFisher, Cat. No, PV5597) and 8.9 nM SureLight allophycocyanin-streptavidin (Perkin Elmer, APC-SA, Cat. No. CR130-100). ENL YEATS was used at 5 nM and BRD4 BD1 was used at 10 nM. ENL assays were performed with H3(13-32)K27cr (13.3 and 100 nM, respectively), custom synthesized at ABclonal (N-terminal biotin, C-terminal amide); BRD4 BD1 assay was performed with 13.3 nM tetra-acetylated H4 (BioVision, Cat. No. 7144-01). Once all reagents were combined (with or without peptide), 10 μL was dispensed per well into black 384-well low-volume plates (Corning, Cat. No. 3821) and drug was added by pin tool transfer (Biomek FX). Assays were incubated for 2 or more hours before measurement of HTRF signal on a PHERAstar plate reader (BMG Labtech; simultaneous dual emission; excitation=337 nm, emission 1=665 nm, emission 2=620 nm). HTRF signal (ratio of emission 1 to emission 2) from vehicle-treated wells (maximum signal) and no-peptide-control wells (minimum signal) were used to calculate percent inhibition for drug-treated wells.

[2] = target: T2, BRD4 bromodomain 1 (BD1) (Homo sapiens, UniProt O60885); experiment: BRD4 (BD1)-H4 tetra-acetylated HTRF histone-binding assay
T2 construct: Selectivity against BRD4 bromodomain 1 (BD1), measured by HTRF; His; purchased Cayman 11720
Procedure: as §1, §2

[3] = ENL (YEATS)-H3K27cr HTRF (IC50, μM), Table 1
[4] = ENL (YEATS)-H3K27cr HTRF (IC50, μM), Table 2
[5] = read-out: ENL (YEATS)-H3K27cr HTRF (IC50), Table 1

| Compound | IC50 [1, 3] | IC50 [1, 4] | IC50 ([2]; Table 1) | IC50 ([2]; Table 2) | IC50 [1, 5] | IC50 ([1]; read-out: ENL (YEATS)-H3K27cr HTRF (IC50), Table 2) |
| --- | --- | --- | --- | --- | --- | --- |
| CC(C)NC(=O)c1ccc2nc(-c3ccccc3)cn2c1 [Compound 1] | 4 µM | 4 µM | > 50 µM | > 50 µM | – | – |
| CCc1ccc(-c2cn3cc(C(=O)NC4CC4)ccc3n2)cc1 [Compound 28] | 5 µM | 5 µM | – | – | – | – |
| O=C(NCC1CC1)c1ccc2nc(-c3ccccc3)cn2c1 [Compound 29] | 6 µM | 6 µM | – | – | – | – |
| O=C(NC1CCC(O)CC1)c1ccc2nc(-c3ccc(F)cc3)cn2c1 (stereo not drawn) [Compound 32] | 7 µM | 7 µM | – | – | – | – |
| CC(C)NC(=O)c1ccc2nc(-c3ccc([N+](=O)[O-])cc3)cn2c1 [Compound 37] | 2.8 µM | 2.8 µM | > 50 µM | > 50 µM | – | – |
| CC(C)NC(=O)c1ccc2nc(-c3cccc(N)c3)cn2c1 [Compound 38] | 10.7 µM | 10.7 µM | > 50 µM | > 50 µM | – | – |
| CC(C)NC(=O)c1ccc2nc(-c3cccc(N=S(=O)(F)F)c3)cn2c1 [Compound 40, (3-(6-(isopropylcarbamoyl)imidazo[1,2-a]pyridin-2-yl)phenyl)sulfurimidoyl difluoride] | – | – | > 50 µM | > 50 µM | 3.6 µM | – |
| CC(C)NC(=O)c1ccc2nc(-c3cccc(NS(=O)(=O)NCCCO)c3)cn2c1 [Compound 44] | 0.56 µM | 0.56 µM | > 50 µM | > 50 µM | – | – |
| CC(C)NC(=O)c1ccc2nc(-c3cccc(NS(=O)(=O)NCc4ccc(O)cc4)c3)cn2c1 [Compound 47] | 0.37 µM | 0.37 µM | > 50 µM | > 50 µM | – | – |
| CC(C)NC(=O)c1ccc2nc(-c3cccc(NS(=O)(=O)NCCc4cccs4)c3)cn2c1 [Compound 49] | 1.36 µM | 1.36 µM | > 50 µM | > 50 µM | – | – |
| COc1ccc(CNS(=O)(=O)Nc2cccc(-c3cn4cc(C(=O)NC(C)C)ccc4n3)c2)c(OC)c1 [Compound 50] | 0.52 µM | 0.52 µM | > 50 µM | > 50 µM | – | – |
| CC(C)NC(=O)c1ccc2nc(-c3cccc(NS(=O)(=O)NCc4ccc(F)cc4)c3)cn2c1 [Compound 51] | 1.02 µM | 1.02 µM | > 50 µM | > 50 µM | – | – |
| CC(C)NC(=O)c1ccc2nc(-c3cccc(NS(=O)(=O)NCCCN4CCCC4=O)c3)cn2c1 [Compound 53] | 0.88 µM | 0.88 µM | > 50 µM | > 50 µM | – | – |
| COC(=O)[C@@H](Cc1c[nH]c2ccccc12)NS(=O)(=O)Nc1cccc(-c2cn3cc(C(=O)NC(C)C)ccc3n2)c1 [Compound 54] | 0.87 µM | 0.87 µM | > 50 µM | > 50 µM | – | – |
| CC(C)NC(=O)c1ccc2nc(-c3cccc(NS(=O)(=O)NCCO)c3)cn2c1 [Compound 57] | 0.43 µM | 0.43 µM | > 50 µM | > 50 µM | – | – |
| CC(C)NC(=O)c1ccc2nc(-c3cccc(NS(=O)(=O)NCCc4ccc(N)cc4)c3)cn2c1 [Compound 58] | 0.32 µM | 0.32 µM | > 50 µM | > 50 µM | – | – |
| CC(C)NC(=O)c1ccc2nc(-c3ccccc3C#N)cn2c1 [Compound 89] | 16.7 µM | 16.7 µM | – | – | – | – |
| CC(C)NC(=O)c1ccc2nc(Cn3ccnc3)cn2c1 [Compound 90] | 26.6 µM | 26.6 µM | – | – | – | – |
| CC(C)NC(=O)c1ccc2nc(-c3ccccn3)cn2c1 [Compound 91] | 14.8 µM | 14.8 µM | – | – | – | – |
| CC(C)NC(=O)c1ccc2nc(-c3ccc(CN)cc3)cn2c1 [Compound 92] | 3.72 µM | 3.72 µM | – | – | – | – |
| O=C(NC1C2CC1C2)c1ccc2nc(-c3ccccc3)cn2c1 (stereo not drawn) [Compound 125] | – | – | – | – | > 50 µM | – |

Further lines, results first:

| IC50 [1, 3] | IC50 [1, 4] | IC50 ([2]; Table 1) | IC50 ([2]; Table 2) | IC50 [1, 5] | IC50 ([1]; read-out: ENL (YEATS)-H3K27cr HTRF (IC50), Table 2) | Compound |
| --- | --- | --- | --- | --- | --- | --- |
| 6 µM | 6 µM | – | – | – | – | CC(NC(=O)c1ccc2nc(-c3ccccc3)cn2c1)c1ccccn1 (stereo not drawn) [Compound 30] |
| 7 µM | 7 µM | – | – | – | – | O=C(NC1CCC(O)CC1)c1ccc2nc(-c3ccccc3)cn2c1 (stereo not drawn) [Compound 31] |
| 9 µM | 9 µM | – | – | – | – | O=C(NC1CC1)c1ccc2nc(-c3ccccc3)cn2c1 [Compound 33] |
| 10 µM | 10 µM | – | – | – | – | Cc1ccc(-c2cn3cc(C(=O)NC(C)c4cccnc4)ccc3n2)cc1 (stereo not drawn) [Compound 35] |
| 3.7 µM | 3.7 µM | > 50 µM | > 50 µM | – | – | CC(C)NC(=O)c1ccc2nc(-c3cccc([N+](=O)[O-])c3)cn2c1 [Compound 36] |
| 7.8 µM | 7.8 µM | > 50 µM | > 50 µM | – | – | CC(C)NC(=O)c1ccc2nc(-c3ccc(N)cc3)cn2c1 [Compound 39] |
| – | – | > 50 µM | > 50 µM | – | 13 µM | CC(C)NC(=O)c1ccc2nc(-c3ccc(N=S(=O)(F)F)cc3)cn2c1 [Compound 41, (4-(6-(isopropylcarbamoyl)imidazo[1,2-a]pyridin-2-yl)phenyl)sulfurimidoyl difluoride] |
| 0.55 µM | 0.55 µM | > 50 µM | > 50 µM | – | – | CC(C)NC(=O)c1ccc2nc(-c3cccc(NS(=O)(=O)NCCOCCO)c3)cn2c1 [Compound 42] |
| 0.47 µM | 0.47 µM | – | – | – | – | CC(C)NC(=O)c1ccc2nc(-c3cccc(NS(=O)(=O)NCCCCO)c3)cn2c1 [Compound 43] |
| 0.55 µM | 0.55 µM | > 50 µM | > 50 µM | – | – | CC(C)NC(=O)c1ccc2nc(-c3cccc(NS(=O)(=O)NCCCN4CCOCC4)c3)cn2c1 [Compound 45] |
| 0.51 µM | 0.51 µM | > 50 µM | > 50 µM | – | – | CC(C)NC(=O)c1ccc2nc(-c3cccc(NS(=O)(=O)NCCc4ccc(S(N)(=O)=O)cc4)c3)cn2c1 [Compound 48] |
| 0.39 µM | 0.39 µM | > 50 µM | > 50 µM | – | – | CNS(=O)(=O)Nc1cccc(-c2cn3cc(C(=O)NC(C)C)ccc3n2)c1 [Compound 52] |
| 0.95 µM | 0.95 µM | > 50 µM | > 50 µM | – | – | COC(=O)[C@H]1CCCN1S(=O)(F)=Nc1cccc(-c2cn3cc(C(=O)NC(C)C)ccc3n2)c1 (stereo partly drawn) [Compound 55] |
| 0.52 µM | 0.52 µM | > 50 µM | > 50 µM | – | – | CC(C)NC(=O)c1ccc2nc(-c3cccc(NS(=O)(=O)NCCC(N)=O)c3)cn2c1 [Compound 56] |
| 0.55 µM | 0.55 µM | > 50 µM | > 50 µM | – | – | CC(C)NC(=O)c1ccc2nc(-c3cccc(NS(=O)(=O)NCCCCCC#N)c3)cn2c1 [Compound 59] |
| 0.69 µM | 0.69 µM | > 50 µM | > 50 µM | – | – | CC(C)NC(=O)c1ccc2nc(-c3cccc(NS(=O)(=O)NCCCC(=O)O)c3)cn2c1 [Compound 60] |
| 0.36 µM | 0.36 µM | > 50 µM | > 50 µM | – | – | CC(C)NC(=O)c1ccc2nc(-c3cccc(NS(=O)(=O)NCCCCCCC(=O)O)c3)cn2c1 [Compound 61] |
| 0.3 µM | 0.3 µM | > 50 µM | > 50 µM | – | – | CC(C)NC(=O)c1ccc2nc(-c3cccc(NS(=O)(=O)NCCCCO)c3)cn2c1 [Compound 62] |
| 7.05 µM | 7.05 µM | – | – | – | – | Cc1cc(-c2cn3cc(C(=O)NC(C)C)ccc3n2)ccn1 [Compound 88] |
